Source: patent US20240300904A1, “PYRIDAZINONES FOR THE TREATMENT OR PREVENTION OF HYPERTENSION” (UNIVERSITETET I OSLO, priority 2021, published 2024)

Key:
[1] = test system: rat aortic rings; test: Vasorelaxation: ANP-mediated relaxation of rat aortic rings; conditions: conc. response of ANP in the absence (ANP) or presence of 10 μM compound, L-NAME present
Procedure: Male Sprague-Dawley (6-8 weeks old) rats were killed by cervical dislocation. The thoracic aorta was dissected and rings (˜4 mm length) mounted in organ baths containing physiological salt solution (PSS; composition in mM: NaCl 119, KCl 4.7, CaCl2 2.5, MgSO4 1.2, NaHCO3 25, KH2PO4 1.2, and glucose 5.5), maintained at 37° C. and gassed with 5% CO2 in O2. Changes in isometric tension were measured in the tissues under a basal tension of 1 g. After equilibration, vessels were repeatedly contracted with KCl (48 mM) until responses were reproducible. A cumulative concentration-response curve was then constructed to the thromboxane receptor agonist 9,11-dideoxy-11α,9α-epoxymethano-prostaglandin F2α (U46619; 10 nm-1 μM). Arteries were then treated with the nitric oxide synthase (NOS) inhibitor L-NG-nitroarginine methyl ester (300 μM; to block the production of endogenous nitric oxide) and pre-contracted with an EC80 concentration of U46619. Once a stable response was achieved, cumulative concentration-response curves were constructed to ANP (0.001-1 μM) in the absence or presence of Compound 1 or Compound 2 (all 10 μM, incubated for 30 min prior to the administration of ANP).

[2] = biological target: T1, human (h) natriuretic peptide receptor A (hNPR-A) (Homo sapiens, UniProt P16066); test: AlphaScreen assay for cGMP: BNP-mediated NPR-A activity (cGMP production); type: cell-based; conditions: conc. response of compound + 0.1 nM BNP
T1 construct: expressed in transfected cells
T1 sequence (P16066 33-1061): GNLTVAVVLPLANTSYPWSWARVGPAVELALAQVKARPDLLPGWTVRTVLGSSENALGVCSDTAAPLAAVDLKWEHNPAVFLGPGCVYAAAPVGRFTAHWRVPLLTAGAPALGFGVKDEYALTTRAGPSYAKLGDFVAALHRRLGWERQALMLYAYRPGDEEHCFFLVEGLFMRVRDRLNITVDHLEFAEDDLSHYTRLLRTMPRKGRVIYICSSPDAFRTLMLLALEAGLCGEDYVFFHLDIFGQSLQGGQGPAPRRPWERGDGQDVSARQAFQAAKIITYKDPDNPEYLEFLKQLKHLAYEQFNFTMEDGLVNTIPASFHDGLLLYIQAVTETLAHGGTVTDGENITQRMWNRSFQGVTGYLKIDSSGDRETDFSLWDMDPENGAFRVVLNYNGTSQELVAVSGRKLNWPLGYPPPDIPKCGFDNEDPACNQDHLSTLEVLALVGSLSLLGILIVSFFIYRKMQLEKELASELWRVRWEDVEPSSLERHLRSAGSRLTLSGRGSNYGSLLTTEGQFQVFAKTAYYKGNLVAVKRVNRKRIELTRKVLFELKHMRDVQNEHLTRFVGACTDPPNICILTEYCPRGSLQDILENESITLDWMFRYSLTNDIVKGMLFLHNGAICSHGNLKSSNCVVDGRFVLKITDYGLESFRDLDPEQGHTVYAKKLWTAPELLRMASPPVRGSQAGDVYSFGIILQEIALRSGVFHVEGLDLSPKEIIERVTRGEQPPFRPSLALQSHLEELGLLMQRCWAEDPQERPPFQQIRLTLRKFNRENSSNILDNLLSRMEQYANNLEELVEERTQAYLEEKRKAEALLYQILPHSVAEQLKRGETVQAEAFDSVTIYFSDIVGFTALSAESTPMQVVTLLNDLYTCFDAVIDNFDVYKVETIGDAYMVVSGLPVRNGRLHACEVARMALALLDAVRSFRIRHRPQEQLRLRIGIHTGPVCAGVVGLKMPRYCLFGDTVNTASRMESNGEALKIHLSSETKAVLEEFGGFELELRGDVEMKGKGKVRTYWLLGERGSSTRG
T1 sequence (P16860 103-134 partner limits assumed): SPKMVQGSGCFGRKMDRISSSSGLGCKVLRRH
Procedure: QBIHEK293A cells stably transfected with human (h) natriuretic peptide receptor A (hNPR-A) and hNPR-B were made as described in Bach et al., Naunyn Schmiedebergs Arch. Pharmacol. 2014; 387:5-14. Cells were grown in DMEM (Dulbecco's Modified Eagle's Medium, Gibco®, ThermoFischer Scientific) supplemented with 10% Fetal Bovine Serum (FBS), 100 U/ml penicillin, 0.1 mg/ml streptomycin, and 0.4 mg/ml G418 (geneticin) as selection antibiotic.
The AlphaScreen assay for cGMP (Perkin Elmer) was performed as described in Bach et al. (see above). NPR-A and NPR-B expressing HEK293 cells were split the day before the experiment and harvested using an EDTA solution (Versene, Invitrogen, ThermoFischer Scientific). A final concentration of 6000 cells/well was re-suspended in stimulation buffer (5 mM HEPES in HBSS at pH 7.4, 0.1% BSA) with IBMX (0.7 mM final). Compounds were dissolved in stimulation buffer and added to wells in increasing concentrations. Cells were incubated with the indicated compounds 20 minutes before addition of agonists (human BNP, human CNP or human proBNP) in various concentrations. Cells were stimulated for 20 minutes with agonist before the reactions were stopped (i.e. cells lysed) by adding the AlphaScreen Acceptor bead mix (Acceptor beads-anti-cGMP antibody and 0.5% Tween-20 in 5 mM HEPES buffer at pH 7.4). After 1 hour incubation, the Donor bead mix (Donor beads, biotinylated cGMP, 0.5% Tween-20 in 5 mM HEPES buffer at pH 7.4) was added (40 μl total volume) and incubation continued for 2 hours. The luminescence signals were analyzed quantitatively by reading of the plates on the EnVision® Multilabel Plate Reader (Perkin Elmer) using AlphaScreen emission 570 nm filter.

[3] = test system: HeLa cells; test: MTT assay (cytotoxicity); type: cell-based; conditions: 24 and 48 h, compared with compounds 3 and 11
Procedure: Cells were incubated for 24 and 48 h with increasing concentrations of the indicated compound. The data represent formazan formation (absorbance) as a percentage of the negative control (1% DMSO).
The MTT (3-(4,5-dimethylthiazol-2-yl)-2,5-diphenyltetrazolium bromide) tetrazolium reduction assay was used to measure cytotoxicity of the compounds in vitro. Viable cells with active metabolism convert MTT into a purple colored formazan product with an absorbance maximum near 570 nm. HeLa cells were plated in 96-well plates in culture medium (DMEM (Dulbecco's Modified Eagle's Medium, Gibco®, ThermoFischer Scientific) supplemented with 10% Fetal Bovine Serum (FBS), 100 U/ml penicillin, 0.1 mg/ml streptomycin) the day before experiments. Cells were incubated for 24 or 48 h at 37° C. with increasing concentrations of each compound (in 1% DMSO). 1% DMSO and 20 mM H2O2 in culture medium were used as negative and positive control, respectively. MTT solution at a final concentration of 0.45 mg/ml was added to the wells and cells incubated for 1 to 4 hours at 37° C. Solubilization solution (40% (vol/vol) dimethylformamide (DMF), 2% (vol/vol) glacial acetic acid and 16% (wt/vol) sodium dodecyl sulfate (SDS)) was added to each well to dissolve formazan crystals. Absorbance was measured at 570 nm.

[4] = Cytotoxicity screening (Cyprotex Discovery Ltd.); type: cell-based
[5] = biological target: T2, dopamine D1-receptor (Homo sapiens, UniProt P21728); test: Safety pharmacology panel (SafetyScan E/IC50 ELECT); type: cell-based; conditions: minor activity; 78-target panel
T2 construct: purchased Discover X/Eurofins SafetyScan E/IC50 ELECT
T2 sequence (P21728 whole entry): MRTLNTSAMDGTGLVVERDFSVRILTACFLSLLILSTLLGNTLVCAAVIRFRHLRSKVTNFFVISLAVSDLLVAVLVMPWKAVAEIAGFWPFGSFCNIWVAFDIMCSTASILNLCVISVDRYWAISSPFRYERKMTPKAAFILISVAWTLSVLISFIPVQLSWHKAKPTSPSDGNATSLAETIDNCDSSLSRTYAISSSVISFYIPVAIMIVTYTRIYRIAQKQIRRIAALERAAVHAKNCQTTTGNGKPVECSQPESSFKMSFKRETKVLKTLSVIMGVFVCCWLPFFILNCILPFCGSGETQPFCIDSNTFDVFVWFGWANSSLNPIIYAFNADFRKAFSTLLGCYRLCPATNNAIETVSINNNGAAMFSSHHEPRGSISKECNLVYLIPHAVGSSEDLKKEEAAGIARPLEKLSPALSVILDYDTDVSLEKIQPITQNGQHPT

[6] = biological target: T3, β1-adrenergic receptor (Homo sapiens, UniProt P08588); test: as above; type: cell-based; conditions: minor activity; 78-target panel
T3 construct: purchased Discover X/Eurofins SafetyScan E/IC50 ELECT
T3 sequence (P08588 whole entry): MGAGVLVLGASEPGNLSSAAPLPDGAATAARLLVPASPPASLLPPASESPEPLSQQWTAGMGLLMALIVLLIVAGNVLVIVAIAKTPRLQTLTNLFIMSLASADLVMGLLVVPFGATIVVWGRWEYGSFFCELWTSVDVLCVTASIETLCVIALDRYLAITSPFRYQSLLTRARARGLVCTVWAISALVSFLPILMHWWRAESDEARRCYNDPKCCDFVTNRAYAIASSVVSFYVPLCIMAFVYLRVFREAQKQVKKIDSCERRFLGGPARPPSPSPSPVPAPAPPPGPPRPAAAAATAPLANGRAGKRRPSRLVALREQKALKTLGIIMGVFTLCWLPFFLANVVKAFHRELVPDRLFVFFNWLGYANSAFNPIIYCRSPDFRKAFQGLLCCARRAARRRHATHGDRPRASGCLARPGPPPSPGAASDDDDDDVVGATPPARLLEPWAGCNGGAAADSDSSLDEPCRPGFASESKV

[7] = biological target: T4, β2-adrenergic receptor (Homo sapiens, UniProt P07550); test: as above; type: cell-based; conditions: minor activity; 78-target panel
T4 construct: purchased Discover X/Eurofins SafetyScan E/IC50 ELECT
T4 sequence (P07550 whole entry): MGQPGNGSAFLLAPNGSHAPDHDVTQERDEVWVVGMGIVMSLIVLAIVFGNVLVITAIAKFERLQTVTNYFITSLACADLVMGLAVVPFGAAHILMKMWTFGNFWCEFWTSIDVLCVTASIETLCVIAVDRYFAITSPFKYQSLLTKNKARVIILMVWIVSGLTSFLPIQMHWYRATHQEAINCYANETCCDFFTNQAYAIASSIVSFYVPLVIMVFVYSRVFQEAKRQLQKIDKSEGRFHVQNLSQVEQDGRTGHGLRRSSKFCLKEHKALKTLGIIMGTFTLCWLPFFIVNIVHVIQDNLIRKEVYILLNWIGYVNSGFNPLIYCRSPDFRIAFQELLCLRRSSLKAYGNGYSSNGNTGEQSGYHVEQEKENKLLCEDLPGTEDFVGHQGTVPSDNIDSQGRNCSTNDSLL

EC50 ([2]; NPR-A-expressing HEK293 cells, read-out: -LogEC50 (compound) (converted)) [µM]	Emax ([2]; percentage of maximum BNP-mediated cGMP production, read-out: Max Response) [%]	Molecule	-LogEC50 (ANP) [1]	toxicity in MTT assay relative to corresponding dichloro compounds [3]	non-cytotoxic concentration relative to EC50 at the target ([4]; 15 μM versus EC50 of compound 24 at the target)	cytotoxic effects (cell count, nuclear size, DNA structure, cell membrane permeability, mitochondrial mass, mitochondrial membrane potential, cytochrome c) ([4]; at concentrations below 15 μM)	IC50 [5] [µM]	IC50 [6] [µM]	IC50 [7] [µM]
		ANP: atrial natriuretic peptide, endogenous NPR-A agonist used in vasorelaxation	8.3						
0.2	37.8	O=C(Cn1nccc(Cl)c1=O)c1ccc(Cl)cc1Cl [Compound 24, 4-chloro-2-(2-(2,4-dichlorophenyl)-2-oxoethyl) pyridazin-3(2H)-one]		lower toxicity	70-80 fold	did not show any cytotoxic effects	> 6	> 6	> 6
